Data published in PubChem BioAssay AID1259411 (Chemical Carcinogenesis Research Information System (CCRIS), 2018).
Activity calls are given as the source filed them. How the calls were made is not given here.

System: rodent carcinogenicity bioassays, tumor incidence
Assay: CCRIS carcinogenicity studies
Procedure, shortened: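 Archive of carcinogenicity, mutagenicity, tumor promotion and tumor inhibition results drawn from journals, NCI reports and other sources, expert-reviewed; covers 1985-2011 and is no longer updated.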

CCc1cc(C(N)=S)ccn1
carcinogen call (Species: MOUSE, Route: ORAL, Tumor Site: Type of Lesion: THYROID GLAND): active; positive | carcinogen call (Species: MOUSE, Strain/Sex: B6C3F1/FEMALE, Route: ORAL, Dose: 0, 1000, 2000 PPM IN DIET, Dose: 0, 1000, 2000 PPM IN DIET): inactive; negative | carcinogen call (Species: MOUSE, Strain/Sex: B6C3F1/MALE, Route: ORAL, Dose: 0, 1000, 2000 PPM IN DIET, Dose: 0, 1000, 2000 PPM IN DIET): inactive; negative | carcinogen call (Species: RAT, Strain/Sex: F344/FEMALE, Route: ORAL, Dose: 0, 1500, 3000 PPM IN DIET, Dose: 0, 1500, 3000 PPM IN DIET): inactive; negative | carcinogen call (Species: RAT, Strain/Sex: F344/MALE, Route: ORAL, Dose: 0, 1500, 3000 PPM IN DIET, Dose: 0, 1500, 3000 PPM IN DIET): inactive; negative

O[C@H]1C=CC=C[C@@H]1O
carcinogen call (Species: MOUSE, Strain/Sex: SWISS/FEMALE, Route: INTRAPERITONEAL, Dose: 0, 50 UMOL ADMINISTERED AS 3 UNEQUAL DOSES (1/7, 2/7, AND 4/7 OF THE TOTAL DOSE) OVER A 2-WK PERIOD (STUDY DURATION: 28): inactive; negative | carcinogen call (Species: MOUSE, Strain/Sex: SWISS/MALE, Route: INTRAPERITONEAL, Dose: 0, 50 UMOL ADMINISTERED AS 3 UNEQUAL DOSES (1/7, 2/7, AND 4/7 OF THE TOTAL DOSE) OVER A 2-WK PERIOD (STUDY DURATION: 28): inactive; negative

O=C(O)COc1ccc(Cl)cc1Cl
carcinogen call (Species: MOUSE, Strain/Sex: B6C3F1/FEMALE, Route: ORAL, Dose: 0, 5, 150, 300 MG/KG BW DAILY FOR 2 YR (STUDY DURATION: 2 YR), Dose: 0, 5, 150, 300 MG/KG BW DAILY FOR 2 YR (STUDY DURATION: 2 YR)): inactive; negative | carcinogen call (Species: MOUSE, Strain/Sex: B6C3F1/MALE, Route: ORAL, Dose: 0, 5, 62.5, 125 MG/KG BW DAILY FOR 2 YR (STUDY DURATION: 2 YR), Dose: 0, 5, 62.5, 125 MG/KG BW DAILY FOR 2 YR (STUDY DURATION: 2 YR)): inactive; negative | carcinogen call (Species: RAT, Strain/Sex: F344/FEMALE, Route: ORAL, Dose: 0, 5, 75, 150 MG/KG BW DAILY FOR 2 YR (STUDY DURATION: 2 YR), Dose: 0, 5, 75, 150 MG/KG BW DAILY FOR 2 YR (STUDY DURATION: 2 YR)): inactive; negative | carcinogen call (Species: RAT, Strain/Sex: F344/MALE, Route: ORAL, Dose: 0, 5, 75, 150 MG/KG BW DAILY FOR 2 YR (STUDY DURATION: 2 YR), Dose: 0, 5, 75, 150 MG/KG BW DAILY FOR 2 YR (STUDY DURATION: 2 YR)): inactive; negative

CC(=O)O[C@]1(C(C)=O)CC[C@H]2[C@@H]3C[C@H](C)C4=CC(=O)CC[C@]4(C)[C@H]3CC[C@@]21C
carcinogen call (Species: DOG, Route: INTRAMUSCULAR, Tumor Site: Type of Lesion: MAMMARY GLAND): active; positive | carcinogen call (Species: MONKEY, Strain/Sex: CYNOMOLGUS/FEMALE, Route: ORAL, Dose: 0, 2.5 MG/WOMAN/D HUMAN DOSE EQUIVALENT IN DIET FOR 36 MONTHS BEGINNING 3 MONTHS POST BILATERAL OVARIECTOMY (STUDY DURAT): inactive; negative

C/C=C/c1ccc(O)c(OC)c1
carcinogen call (Species: Mouse, Strain/Sex: B6C3F1 /Female (50/Group), Route: Oral, Dose: 0, 75, 150, 300 mg/kg in corn oil, by gavage, 5 d/wk for 2 yr, Dose: 0, 75, 150, 300 mg/kg in corn oil, by gavage, 5 d/wk for 2 yr): inactive; negative. (authors describe as equivocal evidence based on incidence of histiocy | carcinogen call (Species: Mouse, Strain/Sex: B6C3F1 /Male (50/Group), Route: Oral, Dose: 0, 75, 150, 300 mg/kg in corn oil, by gavage, 5 d/wk for 2 yr, Dose: 0, 75, 150, 300 mg/kg in corn oil, by gavage, 5 d/wk for 2 yr, Tumor Site: Type of Lesion: Liver: hepatocellular adenoma (24/50, 35/50, 37/50, 33/50), hepatocellular carcinoma (8/50, 18/50, 19/50, 18/50), hepato, Tumor Site: Type of Lesion: Liver: hepatocellular adenoma (24/50, 35/50, 37/50, 33/50), hepatocellular carcinoma (8/50, 18/50, 19/50, 18/50), hepato): active; positive. (authors describe as clear evidence) | carcinogen call (Species: Rat, Strain/Sex: F344/N / Female (50/Group), Route: Oral, Dose: 0, 75, 150, 300 mg/kg in corn oil, by gavage, 5 d/wk for 2 yr, Dose: 0, 75, 150, 300 mg/kg in corn oil, by gavage, 5 d/wk for 2 yr): inactive; negative | carcinogen call (Species: Rat, Strain/Sex: F344/N / Male (50/Group), Route: Oral, Dose: 0, 75, 150, 300 mg/kg in corn oil, by gavage, 5 d/wk for 2 yr, Dose: 0, 75, 150, 300 mg/kg in corn oil, by gavage, 5 d/wk for 2 yr): inactive; negative. (authors describe as equivocal evidence based on incidence of thymoma,

CC1=C(C(=O)OCCN(Cc2ccccc2)c2ccccc2)C(c2cccc([N+](=O)[O-])c2)C(P2(=O)OCC(C)(C)CO2)=C(C)N1 (configuration not stated)
carcinogen call (Species: MOUSE, Strain/Sex: B6C3F1/FEMALE, Route: ORAL, Dose: 0, 500, 1600, 5000 PPM IN FEED FOR 104 WK (STUDY DURATION: 104 WK), Dose: 0, 500, 1600, 5000 PPM IN FEED FOR 104 WK (STUDY DURATION: 104 WK)): inactive; negative | carcinogen call (Species: MOUSE, Strain/Sex: B6C3F1/MALE, Route: ORAL, Dose: 0, 500, 1600, 5000 PPM IN FEED FOR 104 WK (STUDY DURATION: 104 WK), Dose: 0, 500, 1600, 5000 PPM IN FEED FOR 104 WK (STUDY DURATION: 104 WK)): inactive; negative | carcinogen call (Species: RAT, Strain/Sex: F344/FEMALE, Route: ORAL, Dose: 0, 400, 1200, 3600 PPM IN FEED FOR 104 WK (STUDY DURATION: 104 WK), Dose: 0, 400, 1200, 3600 PPM IN FEED FOR 104 WK (STUDY DURATION: 104 WK)): inactive; negative | carcinogen call (Species: RAT, Strain/Sex: F344/MALE, Route: ORAL, Dose: 0, 400, 1200, 3600 PPM IN FEED FOR 104 WK (STUDY DURATION: 104 WK), Dose: 0, 400, 1200, 3600 PPM IN FEED FOR 104 WK (STUDY DURATION: 104 WK)): inactive; negative

[Ni]=[Te]
carcinogen call (Species: RAT, Strain/Sex: F344/MALE, Route: INTRAMUSCULAR, Tumor Site: Type of Lesion: INJECTION SITE: SARCOMA): active; positive

O=NN1CCCOC1
carcinogen call (Species: RAT, Strain/Sex: F344/FEMALE, Route: ORAL, Dose: 40 MG/L IN DRINKING WATER FOR 50 WK, Tumor Site: Type of Lesion: LIVER: HEPATOCELLULAR CARCINOMA, HEMANGIOENDOTHELIAL SARCOMA): active; positive

C#CC(C)(C)NC(=O)c1cc(Cl)cc(Cl)c1
carcinogen call (Species: MOUSE, Strain/Sex: B6C3F1/MALE, Route: ORAL, Dose: 0, 20, 100, 500, 2500 PPM IN DIET FOR 12, 18 OR 24 MO (STUDY DURATION: 24 MO), Dose: 0, 20, 100, 500, 2500 PPM IN DIET FOR 12, 18 OR 24 MO (STUDY DURATION: 24 MO), Tumor Site: Type of Lesion: LIVER: HEPATOCELLULAR CARCINOMA OR ADENOMA): active; positive

CC1(C)S[C@@H]2[C@H](NC(=O)COc3ccccc3)C(=O)N2[C@H]1C(=O)O
carcinogen call (Species: MOUSE, Strain/Sex: B6C3F1/FEMALE, Route: GAVAGE, Dose: 0, 500, 1000 MG/KG IN CORN OIL 5 D/WK FOR 103-104 WK (STUDY DURATION: 106 WK), Dose: 0, 500, 1000 MG/KG IN CORN OIL 5 D/WK FOR 103-104 WK (STUDY DURATION: 106 WK)): inactive; negative | carcinogen call (Species: MOUSE, Strain/Sex: B6C3F1/FEMALE, Route: GAVAGE, Dose: 0, 500, 1000 MG/KG IN CORN OIL 5D/WK FOR 104 WK, Dose: 0, 500, 1000 MG/KG IN CORN OIL 5D/WK FOR 104 WK): inactive; negative | carcinogen call (Species: MOUSE, Strain/Sex: B6C3F1/MALE, Route: GAVAGE, Dose: 0, 500, 1000 MG/KG IN CORN OIL 5 D/WK FOR 103-104 WK (STUDY DURATION: 106 WK), Dose: 0, 500, 1000 MG/KG IN CORN OIL 5 D/WK FOR 103-104 WK (STUDY DURATION: 106 WK)): inactive; negative | carcinogen call (Species: MOUSE, Strain/Sex: B6C3F1/MALE, Route: GAVAGE, Dose: 0, 500, 1000 MG/KG IN CORN OIL 5D/WK FOR 104 WK, Dose: 0, 500, 1000 MG/KG IN CORN OIL 5D/WK FOR 104 WK): inactive; negative | carcinogen call (Species: RAT, Strain/Sex: F344/FEMALE, Route: GAVAGE, Dose: 0, 500, 1000 MG/KG IN CORN OIL 5 D/WK FOR 103-104 WK (STUDY DURATION: 106 WK), Dose: 0, 500, 1000 MG/KG IN CORN OIL 5 D/WK FOR 103-104 WK (STUDY DURATION: 106 WK)): inactive; negative | carcinogen call (Species: RAT, Strain/Sex: F344/FEMALE, Route: GAVAGE, Dose: 0, 500, 1000 MG/KG IN CORN OIL 5D/WK FOR 103 WK (STUDY DURATION: 104 WK), Dose: 0, 500, 1000 MG/KG IN CORN OIL 5D/WK FOR 103 WK (STUDY DURATION: 104 WK)): inactive; negative | carcinogen call (Species: RAT, Strain/Sex: F344/MALE, Route: GAVAGE, Dose: 0, 500, 1000 MG/KG IN CORN OIL 5 D/WK FOR 103-104 WK (STUDY DURATION: 106 WK), Dose: 0, 500, 1000 MG/KG IN CORN OIL 5 D/WK FOR 103-104 WK (STUDY DURATION: 106 WK)): inactive; negative | carcinogen call (Species: RAT, Strain/Sex: F344/MALE, Route: GAVAGE, Dose: 0, 500, 1000 MG/KG IN CORN OIL 5D/WK FOR 103 WK (STUDY DURATION: 104 WK), Dose: 0, 500, 1000 MG/KG IN CORN OIL 5D/WK FOR 103 WK (STUDY DURATION: 104 WK)): inactive; negative
